In assay [1] the test system is β-catenin. The assay can be described thus: β-catenin levels in COS-7 cells, Western blot. It counts as cell-based. Conditions: various concentrations, 5 hour, FIG. 6B. How it is done: In further studies, COS-7 cells were treated with L806-mts at various concentrations for 5 hour.
A general note: A western blot detects proteins with antibodies after separation by electrophoresis.

Assay [2] concerns heat shock factor-1 (HSF-1). The assay can be described thus: Phosphorylation of HSF-1 in COS-7 cells, Western blot. It counts as cell-based. Conditions: FIG. 6C. The method, then: L806-mts-treated COS-7 cells were also tested for phosphorylation of the GSK-3 substrate heat shock factor-1 (HSF-1).
In assay [3] the target is T1, GSK-3β (Homo sapiens, UniProt P49841).
T1 construct: made in house; host or cells: HEK-293 (transient transfection, pCMV4 vector; DE-52 partial purification)
Nature of the assay: In vitro kinase assay with GSK-3β in the presence of peptide inhibitor. It counts as biochemical. How it is done:
(§1) (0.5 μCi/assay) for 15 minutes.
The ability of each peptide to inhibit GSK-3β was then determined by in vitro kinase assays as described hereinabove.

For assay [4], the system named is β-catenin. The assay can be described thus: Hippocampus β-catenin levels in mice after nasal administration. It counts as in vivo, C57BL/6J mice. Conditions: 60 μg peptide/mouse/day, 3 days, vs non-treated. How it is done:
C57BL/6J mice (12 week old; obtained from Animal Facilities at Tel Aviv University) were treated with L803-mts or L806-mts via a nasal administration (60 μg peptide/per mouse/per day) for 3 days. Non-treated animals served as control. Brains were removed and hippocampus was homogenized in ice-cold ‘buffer G’(20 mM Tris pH 7.5, 10 mM β-glycerophosphate, 10% glycerol, 1 mM EGTA, 1 mM EDTA, 50 mM NaF, 5 mM sodium pyrophosphate, 0.5 mM orthovanadate, 1 mM benzamidine, 5 μg/ml leupeptin, 25 μg/ml aprotinin, 5 μg/ml pepstatin, and 0.5% Triton X100). Equal amounts of proteins (50 μg) were subjected to gel electrophoresis, transferred to nitrocellulose membranes, and immunoblotted with anti-β-catenin antibody. Hippocampus β-catenin levels were determined by western blot analysis as described.

Assay [5] relates to CREB (Ser 129) and N′IRS-1 (Ser 332). The assay can be described thus: Phosphorylation of CREB and N'IRS-1 in HEK-293 cells expressing GSK-3β proteins. It counts as cell-based. Conditions: forskolin or PMA treated, compared with WT-GSK-3β. How it is done: The role of Phe 93 in substrate binding by employing a cellular system and protein substrates (i.e., not peptides) was further explored. To this end, the WT-GSK-3β and F93A mutant were expressed in HEK-293 cells together with GSK-3 substrates CREB or N′IRS-1 (the N-terminal region of IRS-1). Because GSK-3 requires pre-phosphorylation of its substrates, the cells were treated with forskolin to enhance CREB phosphorylation via activation of cAMP dependent kinase (PKA), or with phorbol ester (PMA) to enhance N′IRS-1 phosphorylation via activation of protein kinase C (PKC). The phosphorylation of CREB at serine 129, and N′IRS-1 at serine 332 (both GSK-3 phosphorylation sites) was then examined.
Thus, HEK293 cells were co-transfected with WT-GSK-3β or F93A plasmids together with construct coding for CREB. Cells were treated with forskolin (10 μM, 1 hour), and cell extracts were subjected to western blot analysis using anti-phospho CREB (Ser 129/133) antibody, as presented in FIG. 1D. Expression levels of CREB and GSK-3 proteins are indicated.
Similar assay was conducted using N′IRS-1 cDNA construct instead of CREB, and cells were treated with PMA (100 nM, 30 minutes). Expression levels of N′IRS-1 and GSK-3β are indicated. Results are means of three independent experiments±SEM.

Assay [6] concerns pIRS-1. Nature of the assay: In vitro kinase assay of GSK-3β mutants, substrate pIRS-1. It counts as biochemical. The conditions noted are these: WT set to 100%; mean of 2-3 experiments ± SEM. How it is done:
(§2) HEK-293 cells were grown in Dulbecco's Modified Eagle's Medium (DMEM), supplemented with 10% fetal calf serum (FCS), 2 mM glutamine, 100 units/ml penicillin, and 100 μg/ml streptomycin. HEK-293 cells were transiently transfected with indicated constructs, using calcium phosphate method as described [Ilouz et al. (2006) supra]. Cells were lysed in ice-cold buffer G (20 mM Tris-HCl, pH 7.5, 10 mM β-glycerophosphate, 10% glycerol, 1 mM EGTA, 1 mM EDTA, 50 mM NaF, 5 mM sodium pyrophosphate, 0.5 mM orthovanadate, 1 mM benzamidine, 10 μg/ml leupeptin, 5 μg/ml aprotinin, 1 μg/ml pepstatin, and 0.5% Triton X100). Cell extracts were centrifuged for 30 minutes at 15,000×g. Supernatants were collected, and equal amounts of proteins were boiled with SDS sample buffer and subjected to gel electrophoresis (7.5-12% polyacrylamide gel), transferred to nitrocellulose membranes, and immunoblotted with indicated antibodies. For partial purification, cells were lysed in buffer H (20 mM Tris, pH 7.3, 1 mM EGTA, 1 mM EDTA, 1 mM orthovanadate, 25 μg/ml leupeptin, 25 μg/ml aprotinin, and 25 μg/ml pepstatin A, 500 nM microcystine LR, and 0.25% Triton X100). The lysates were centrifuged at 15,000×g. The resulting supernatants were passed through DE-52 (Whatman, Maidstone, England) mini-columns that were equilibrated with buffer H. GSK-3β proteins were eluted with the same buffer containing 0.02 M NaCl. Equal amounts of proteins were used for in vitro kinase assays. In all experiments, GSK-3 mutants were expressed at levels at least 5-fold higher than levels of the endogenous GSK-3β as determined by western blot analysis.
as §1
(§3) The GSK-3β mutants were partially purified by ion exchange chromatography, and their abilities to phosphorylate peptide substrates were tested in in vitro kinase assays. The substrates were: pIRS-1, p9CREB, and pGS-1, phosphorylated peptides derived from the insulin receptor substrate-1 (IRS-1), cAMP responsive element binding protein (CREB), and glycogen synthase, respectively.
(§4) The results are presented in Table 1, as the percentage of substrate phosphorylation (indicated peptides, pIRS-1, p9CREB and pGS-1) obtained with WTGSK-3β which was set to 100%, and are mean of 2-3 independent experiments each performed in duplicates±SEM.

The subject of assay [7] is p9CREB. Nature of the assay: In vitro kinase assay of GSK-3β mutants, substrate p9CREB. It counts as biochemical. The conditions noted are these: WT set to 100%; mean of 2-3 experiments ± SEM. The method, then:
as §2, §1, §3, §4

Assay [8] relates to pGS-1. Nature of the assay: In vitro kinase assay of GSK-3β mutants, substrate pGS-1. It counts as biochemical. The conditions noted are these: WT set to 100%; mean of 2-3 experiments ± SEM. How it is done: as §2, §1, §3, §4

Where a SMILES comes first, the peptide text is derived from it. [ ]: non-standard residue; d: D form. The star is where a group is joined. Myristoyl = CCCCCCCCCCCCCC(=O)*; pS = N[C@@H](COP(=O)(O)O)C(=O)O

T1 sequence (P49841 1-433 isoform P49841-2): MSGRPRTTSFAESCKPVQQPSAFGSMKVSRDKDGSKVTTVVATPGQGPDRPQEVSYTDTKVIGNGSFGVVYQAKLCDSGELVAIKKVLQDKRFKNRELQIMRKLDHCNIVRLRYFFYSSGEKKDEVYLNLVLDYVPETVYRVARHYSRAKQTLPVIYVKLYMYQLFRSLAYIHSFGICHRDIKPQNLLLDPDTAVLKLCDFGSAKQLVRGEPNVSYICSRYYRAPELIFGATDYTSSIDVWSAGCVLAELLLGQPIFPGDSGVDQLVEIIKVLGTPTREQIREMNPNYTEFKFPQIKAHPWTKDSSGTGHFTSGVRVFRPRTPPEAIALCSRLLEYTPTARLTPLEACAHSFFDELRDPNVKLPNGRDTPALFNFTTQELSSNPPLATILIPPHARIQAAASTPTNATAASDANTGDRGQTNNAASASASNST

`CCCCCCCCCCCCCC(=O)NCC(=O)N[C@@H](CCCCN)C(=O)N[C@@H](CCC(=O)O)C(=O)N[C@@H](C)C(=O)N1CCC[C@H]1C(=O)N1CCC[C@H]1C(=O)N[C@@H](C)C(=O)N1CCC[C@H]1C(=O)N1CCC[C@H]1C(=O)N1CCC[C@H]1C(=O)N[C@@H](COP(=O)(O)O)C(=O)N1CCC[C@H]1C(=O)O` [L806-mts] (Myristoyl-GKEAPPAPPP[pS]P-OH; C-terminus assumed): the “Levels of β-catenin” value in assay [1] is recorded as “Elevation of β-catenin”. In addition, the “Phosphorylation of HSF-1” value in assay [2] is on record as “Reduced phosphorylation”. Besides, the IC50 in assay [3] is ~1 µM. Besides, the “Hippocampus β-catenin levels” value in assay [4] is given as “elevation in β-catenin levels”.

B1: F93A: GSK-3β mutant, F93 replaced by alanine, SEQ ID NO:9 (protein)
chain: MSGRPRTTSFAESCKPVQQPSAFGSMKVSRDKDGSKVTTVVATPGQGPDRPQEVSYTDTKVIGNGSFGVVYQAKLCDSGELVAIKKVLQDKRAKNRELQIMRKLDHCNIVRLRYFFYSSGEKKDEVYLNLVLDYVPETVYRVARHYSRAKQTLPVIYVKLYMYQLFRSLAYIHSFGICHRDIKPQNLLLDPDTAVLKLCDFGSAKQLVRGEPNVSYICSRYYRAPELIFGATDYTSSIDVWSAGCVLAELLLGQPIFPGDSGVDQLVEIIKVLGTPTREQIREMNPNYTEFKFPQIKAHPWTKDSSGTGHFTSGVRVFRPRTPPEAIALCSRLLEYTPTARLTPLEACAHSFFDELRDPNVKLPNGRDTPALFNFTTQELSSNPPLATILIPPHARIQAAASTPTNATAASDANTGDRGQTNNAASASASNST
modifications: GSK-3 beta, F93A mutant
On to B1, for which the “Phosphorylation of CREB and N′IRS-1 in cells” value in assay [5] is given as “did not enhance the phosphorylation”. Besides, in assay [6], the “Substrate phosphorylation (% of WTGSK-3β), pIRS-1” value is recorded as 42 ± 13 % of WTGSK-3β. The “Substrate phosphorylation (% of WTGSK-3β), p9CREB” value in assay [7] was 46 ± 2 % of WTGSK-3β. For the same molecule, in assay [8], the “Substrate phosphorylation (% of WTGSK-3β), pGS-1” value was 13 ± 7 % of WTGSK-3β.

As a reminder, the IC50 is the point on the concentration scale where inhibition reaches its midpoint.

The record behind these values is patent publication US9243034B2, “Glycogen synthase kinase-3 inhibitors” (Ramot at Tel-Aviv University Ltd., priority 2011, dated 2016).
